Reference: patent publication US20230085307A1, “PYRIDAZINONE COMPOUND AND HERBICIDE” (NISSAN CHEMICAL CORPORATION, priority 2019, published 2023)

Key:
late watergrass = assay: Test Example 1: herbicidal activity, application before weed generation under submerged conditions (Table 16, symbol A); format: in vivo, late watergrass (Echinochloa oryzicola); conditions: for Herbicidal effect on A: late watergrass (grade 0-5): 320 g/ha applied herbicide
Procedure, shortened: (§1)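 Submerged Wagner pots (alluvial soil, 4 cm water) sown with weed seeds and planted with 2.5-leaf rice seedlings; emulsifiable concentrate diluted in water applied to water surface on sowing day. Held in greenhouse at 25-30 °C; injury scored 0-5 by herbicidal rate after three weeks.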

Japanese bulrush = assay: Test Example 1: herbicidal activity, application before weed generation under submerged conditions (Table 16, symbol B); format: in vivo, Japanese bulrush (Schoenoplectus juncoides); conditions: for Herbicidal effect on B: Japanese bulrush (grade 0-5): 320 g/ha applied herbicide
Procedure, shortened: as §1

oval-leafed pondweed = assay: Test Example 1: herbicidal activity, application before weed generation under submerged conditions (Table 16, symbol C); format: in vivo, oval-leafed pondweed (Monochoria vaginalis); conditions: for Herbicidal effect on C: oval-leafed pondweed (grade 0-5): 320 g/ha applied herbicide
Procedure, shortened: as §1

barnyard grass [1] = assay: Test Example 3: herbicidal effect by foliage application, Wagner pot (Table 18, symbol H); format: in vivo, barnyard grass (Echinochloa crus-galli); conditions: for herbicidal effect on H: barnyard grass: amount of applied herbicide 320 g/ha
Procedure, shortened: (§2)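 Plants were sown in alluvial soil held under 0.1–0.5 cm standing water and grown 14 days in a greenhouse at 25–30 °C. An emulsifiable formulation, water-diluted to the set dose, was then sprayed onto the foliage, and effects were scored three weeks later using previously defined criteria.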

Chinese sprangletop = assay: Test Example 3: herbicidal effect by foliage application, Wagner pot (Table 18, symbol D); format: in vivo, chinese sprangletop (Leptochloa chinensis); conditions: for herbicidal effect on D: Chinese sprangletop: amount of applied herbicide 320 g/ha
Procedure, shortened: as §2

rice flat sedge = assay: Test Example 3: herbicidal effect by foliage application, Wagner pot (Table 18, symbol E); format: in vivo, rice flat sedge (Cyperus iria); conditions: for herbicidal effect on E: rice flat sedge: amount of applied herbicide 320 g/ha
Procedure, shortened: as §2

southern crabgrass [2] = assay: Test Example 4: herbicidal effect by soil treatment (Table 19, symbol F); format: in vivo, southern crabgrass (Digitaria ciliaris); conditions: amount of applied herbicide 320 g/ha
Procedure, shortened: (§3)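 Soil-surface application: an emulsion agent diluted with water to the predetermined dose is sprayed uniformly over seeds lying under roughly 1.5 cm of sterilized diluvial soil. Boxes stay in a greenhouse at 25° C. to 30° C. Three weeks later, each species is graded on previously defined criteria.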

green foxtail [3] = assay: Test Example 4: herbicidal effect by soil treatment (Table 19, symbol G); format: in vivo, green foxtail (Setaria viridis); conditions: amount of applied herbicide 320 g/ha
Procedure, shortened: as §3

barnyard grass [4] = assay: Test Example 4: herbicidal effect by soil treatment (Table 19, symbol H); format: in vivo, barnyard grass (Echinochloa crus-galli); conditions: amount of applied herbicide 320 g/ha
Procedure, shortened: as §3

wild oat [5] = assay: Test Example 4: herbicidal effect by soil treatment (Table 19, symbol I); format: in vivo, wild oat (Avena fatua); conditions: amount of applied herbicide 320 g/ha
Procedure, shortened: as §3

blackgrass [6] = assay: Test Example 4: herbicidal effect by soil treatment (Table 19, symbol J); format: in vivo, blackgrass (Alopecurus myosuroides); conditions: amount of applied herbicide 320 g/ha
Procedure, shortened: as §3

Italian ryegrass [7] = assay: Test Example 4: herbicidal effect by soil treatment (Table 19, symbol K); format: in vivo, Italian ryegrass (Lolium multiflorum); conditions: amount of applied herbicide 320 g/ha
Procedure, shortened: as §3

windgrass = assay: Test Example 4: herbicidal effect by soil treatment (Table 19, symbol L); format: in vivo, windgrass (Apera spica-venti); conditions: amount of applied herbicide 320 g/ha
Procedure, shortened: as §3

velvetleaf [8] = assay: Test Example 4: herbicidal effect by soil treatment (Table 19, symbol M); format: in vivo, velvetleaf (Abutilon theophrasti); conditions: amount of applied herbicide 320 g/ha
Procedure, shortened: as §3

redroot pigweed = assay: Test Example 4: herbicidal effect by soil treatment (Table 19, symbol N); format: in vivo, redroot pigweed (Amaranthus retroflexus); conditions: amount of applied herbicide 320 g/ha
Procedure, shortened: as §3

lambsquarters [9] = assay: Test Example 4: herbicidal effect by soil treatment (Table 19, symbol O); format: in vivo, lambsquarters (Chenopodium album); conditions: amount of applied herbicide 320 g/ha
Procedure, shortened: as §3

chickweed = assay: Test Example 4: herbicidal effect by soil treatment (Table 19, symbol P); format: in vivo, common chickweed (Stellaria media); conditions: amount of applied herbicide 320 g/ha
Procedure, shortened: as §3

persian speedwell [10] = assay: Test Example 4: herbicidal effect by soil treatment (Table 19, symbol R); format: in vivo, Persian speedwell (Veronica persica); conditions: amount of applied herbicide 320 g/ha
Procedure, shortened: as §3

southern crabgrass [11] = assay: Test Example 5: herbicidal effect by foliage application, plastic box (Table 20, symbol F); format: in vivo, southern crabgrass (Digitaria ciliaris); conditions: foliage application, 320 g/ha, three weeks after application
Procedure, shortened: (§4)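 Sow seeds spot-wise in sterilized diluvial soil; cover with ~1.5 cm soil. Grow 14 days in greenhouse, 25° C. to 30° C. Spray foliage with emulsion diluted to predetermined amount. Rate effect after 3 weeks.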

green foxtail [12] = assay: Test Example 5: herbicidal effect by foliage application, plastic box (Table 20, symbol G); format: in vivo, green foxtail (Setaria viridis); conditions: foliage application, 320 g/ha, three weeks after application
Procedure, shortened: as §4

barnyard grass [13] = assay: Test Example 5: herbicidal effect by foliage application, plastic box (Table 20, symbol H); format: in vivo, barnyard grass (Echinochloa crus-galli); conditions: foliage application, 320 g/ha, three weeks after application
Procedure, shortened: as §4

wild oat [14] = assay: Test Example 5: herbicidal effect by foliage application, plastic box (Table 20, symbol I); format: in vivo, wild oat (Avena fatua); conditions: foliage application, 320 g/ha, three weeks after application
Procedure, shortened: as §4

blackgrass [15] = assay: Test Example 5: herbicidal effect by foliage application, plastic box (Table 20, symbol J); format: in vivo, blackgrass (Alopecurus myosuroides); conditions: foliage application, 320 g/ha, three weeks after application
Procedure, shortened: as §4

Italian ryegrass [16] = assay: Test Example 5: herbicidal effect by foliage application, plastic box (Table 20, symbol K); format: in vivo, Italian ryegrass (Lolium multiflorum); conditions: foliage application, 320 g/ha, three weeks after application
Procedure, shortened: as §4

velvetleaf [17] = assay: Test Example 5: herbicidal effect by foliage application, plastic box (Table 20, symbol M); format: in vivo, velvetleaf (Abutilon theophrasti); conditions: foliage application, 320 g/ha, three weeks after application
Procedure, shortened: as §4

lambsquarters [18] = assay: Test Example 5: herbicidal effect by foliage application, plastic box (Table 20, symbol O); format: in vivo, lambsquarters (Chenopodium album); conditions: foliage application, 320 g/ha, three weeks after application
Procedure, shortened: as §4

persian speedwell [19] = assay: Test Example 5: herbicidal effect by foliage application, plastic box (Table 20, symbol R); format: in vivo, Persian speedwell (Veronica persica); conditions: foliage application, 320 g/ha, three weeks after application
Procedure, shortened: as §4

[20] = amount of applied herbicide 320 g/ha

SMILES: Cc1nn(C)c(=O)c(-c2c(-c3ccc(OC(F)F)cc3)sc3ccc(Cl)cc23)c1O [2-374]
- Herbicidal effect on A: late watergrass (grade 0-5) (late watergrass): 3 (Herbicidal rate of 40% or more and less than 70%)
- Herbicidal effect on B: Japanese bulrush (grade 0-5) (Japanese bulrush): 0 (Herbicidal rate of 5% or less (almost no effect))
- Herbicidal effect on C: oval-leafed pondweed (grade 0-5) (oval-leafed pondweed): 0 (Herbicidal rate of 5% or less (almost no effect))
- herbicidal effect on H: barnyard grass (barnyard grass [1]): 5 (Herbicidal rate of 90% or more (almost completely withered))
- herbicidal effect on D: Chinese sprangletop (Chinese sprangletop): 4 (Herbicidal rate of 70% or more and less than 90%)
- herbicidal effect on E: rice flat sedge (rice flat sedge): 5 (Herbicidal rate of 90% or more (almost completely withered))
- herbicidal effect, F: southern crabgrass (southern crabgrass [2]): 4 (Herbicidal rate of 70% or more and less than 90%)
- herbicidal effect, G: green foxtail (green foxtail [3]): 1 (Herbicidal rate of 5% or more and less than 20%)
- herbicidal effect, H: barnyard grass (barnyard grass [4]): 4 (Herbicidal rate of 70% or more and less than 90%)
- herbicidal effect, I: wild oat (wild oat [5]): 0 (Herbicidal rate of 5% or less (almost no effect))
- herbicidal effect, J: blackgrass (blackgrass [6]): 3 (Herbicidal rate of 40% or more and less than 70%)
- herbicidal effect, K: Italian ryegrass (Italian ryegrass [7]): 4 (Herbicidal rate of 70% or more and less than 90%)
- herbicidal effect, L: windgrass (windgrass): 5 (Herbicidal rate of 90% or more (almost completely withered))
- herbicidal effect, M: velvetleaf (velvetleaf [8]): 3 (Herbicidal rate of 40% or more and less than 70%)
- herbicidal effect, N: redroot pigweed (redroot pigweed): 4 (Herbicidal rate of 70% or more and less than 90%)
- herbicidal effect, O: lambsquarters (lambsquarters [9]): 5 (Herbicidal rate of 90% or more (almost completely withered))
- herbicidal effect, P: chickweed (chickweed): 3 (Herbicidal rate of 40% or more and less than 70%)
- herbicidal effect, R: persian speedwell (persian speedwell [10]): 5 (Herbicidal rate of 90% or more (almost completely withered))

SMILES: CCCC(=O)Oc1c(C)nn(C)c(=O)c1-c1c(-c2cnccc2Cl)sc2ccc(F)cc12 [2-386]
- Herbicidal effect on A: late watergrass (grade 0-5) (late watergrass): 2 (Herbicidal rate of 20% or more and less than 40%)
- Herbicidal effect on B: Japanese bulrush (grade 0-5) (Japanese bulrush): 0 (Herbicidal rate of 5% or less (almost no effect))
- Herbicidal effect on C: oval-leafed pondweed (grade 0-5) (oval-leafed pondweed): 0 (Herbicidal rate of 5% or less (almost no effect))
- herbicidal effect on H: barnyard grass (barnyard grass [1]): 5 (Herbicidal rate of 90% or more (almost completely withered))
- herbicidal effect on D: Chinese sprangletop (Chinese sprangletop): 4 (Herbicidal rate of 70% or more and less than 90%)
- herbicidal effect on E: rice flat sedge (rice flat sedge): 3 (Herbicidal rate of 40% or more and less than 70%)
- herbicidal effect, F: southern crabgrass (southern crabgrass [2]): 4 (Herbicidal rate of 70% or more and less than 90%)
- herbicidal effect, G: green foxtail (green foxtail [3]): 3 (Herbicidal rate of 40% or more and less than 70%)
- herbicidal effect, H: barnyard grass (barnyard grass [4]): 4 (Herbicidal rate of 70% or more and less than 90%)
- herbicidal effect, I: wild oat (wild oat [5]): 1 (Herbicidal rate of 5% or more and less than 20%)
- herbicidal effect, J: blackgrass (blackgrass [6]): 0 (Herbicidal rate of 5% or less (almost no effect))
- herbicidal effect, K: Italian ryegrass (Italian ryegrass [7]): 4 (Herbicidal rate of 70% or more and less than 90%)
- herbicidal effect, L: windgrass (windgrass): 2 (Herbicidal rate of 20% or more and less than 40%)
- herbicidal effect, M: velvetleaf (velvetleaf [8]): 1 (Herbicidal rate of 5% or more and less than 20%)
- herbicidal effect, N: redroot pigweed (redroot pigweed): 4 (Herbicidal rate of 70% or more and less than 90%)
- herbicidal effect, O: lambsquarters (lambsquarters [9]): 4 (Herbicidal rate of 70% or more and less than 90%)
- herbicidal effect, P: chickweed (chickweed): 5 (Herbicidal rate of 90% or more (almost completely withered))
- herbicidal effect, R: persian speedwell (persian speedwell [10]): 5 (Herbicidal rate of 90% or more (almost completely withered))

SMILES: CCOc1cc(F)ccc1-c1sc2cc(OC)c(Cl)cc2c1-c1c(O)c(C)nn(C)c1=O [5-077]
- Herbicidal effect, A: late watergrass (late watergrass; [20]): 2 (Herbicidal rate of 20% or more and less than 40%)
- Herbicidal effect, B: Japanese bulrush (Japanese bulrush; [20]): 0 (Herbicidal rate of 5% or less (almost no effect))
- Herbicidal effect, C: oval-leafed pondweed (oval-leafed pondweed; [20]): 4 (Herbicidal rate of 70% or more and less than 90%)
- herbicidal effect on barnyard grass (H) (barnyard grass [1]; 320 g/ha): 5 (Herbicidal rate of 90% or more (almost completely withered))
- herbicidal effect on Chinese sprangletop (D) (Chinese sprangletop; 320 g/ha): 2 (Herbicidal rate of 20% or more and less than 40%)
- herbicidal effect on rice flat sedge (E) (rice flat sedge; 320 g/ha): 4 (Herbicidal rate of 70% or more and less than 90%)
- F: southern crabgrass, herbicidal effect grade (southern crabgrass [2]): 2 (Herbicidal rate of 20% or more and less than 40%)
- G: green foxtail, herbicidal effect grade (green foxtail [3]): 0 (Herbicidal rate of 5% or less (almost no effect))
- H: barnyard grass, herbicidal effect grade (barnyard grass [4]): 0 (Herbicidal rate of 5% or less (almost no effect))
- I: wild oat, herbicidal effect grade (wild oat [5]): 0 (Herbicidal rate of 5% or less (almost no effect))
- J: blackgrass, herbicidal effect grade (blackgrass [6]): 0 (Herbicidal rate of 5% or less (almost no effect))
- K: Italian ryegrass, herbicidal effect grade (Italian ryegrass [7]): 0 (Herbicidal rate of 5% or less (almost no effect))
- L: windgrass, herbicidal effect grade (windgrass): 0 (Herbicidal rate of 5% or less (almost no effect))
- M: velvetleaf, herbicidal effect grade (velvetleaf [8]): 0 (Herbicidal rate of 5% or less (almost no effect))
- N: redroot pigweed, herbicidal effect grade (redroot pigweed): 3 (Herbicidal rate of 40% or more and less than 70%)
- O: lambsquarters, herbicidal effect grade (lambsquarters [9]): 3 (Herbicidal rate of 40% or more and less than 70%)
- P: chickweed, herbicidal effect grade (chickweed): 0 (Herbicidal rate of 5% or less (almost no effect))
- R: persian speedwell, herbicidal effect grade (persian speedwell [10]): 0 (Herbicidal rate of 5% or less (almost no effect))
- herbicidal effect on southern crabgrass (F) (southern crabgrass [11]): 5 (Herbicidal rate of 90% or more (almost completely withered))
- herbicidal effect on green foxtail (G) (green foxtail [12]): 5 (Herbicidal rate of 90% or more (almost completely withered))
- herbicidal effect on barnyard grass (H) (barnyard grass [13]): 5 (Herbicidal rate of 90% or more (almost completely withered))
- herbicidal effect on wild oat (I) (wild oat [14]): 3 (Herbicidal rate of 40% or more and less than 70%)
- herbicidal effect on blackgrass (J) (blackgrass [15]): 3 (Herbicidal rate of 40% or more and less than 70%)
- herbicidal effect on Italian ryegrass (K) (Italian ryegrass [16]): 0 (Herbicidal rate of 5% or less (almost no effect))
- herbicidal effect on velvetleaf (M) (velvetleaf [17]): 3 (Herbicidal rate of 40% or more and less than 70%)
- herbicidal effect on lambsquarters (O) (lambsquarters [18]): 5 (Herbicidal rate of 90% or more (almost completely withered))
- herbicidal effect on persian speedwell (R) (persian speedwell [19]): 4 (Herbicidal rate of 70% or more and less than 90%)
